Source: US5677309A (priority 1996, dated 1997)
Structures can show the parent of a compound that is named as a salt.

test system: benzodiazepine receptor; experiment: not given; details: Hunkeler et al., 1981; cited from earlier work

Row | Molecule | inhibition of benzodiazepine and beta-carboline binding
1 | imidazo[1,5-a][1,4]benzodiazepine | high affinity competitive inhibitor

target: GABAa receptor (benzodiazepines (BDZ) receptor); experiment: GABAa receptor (benzodiazepine receptor) binding assay, 3H-RO15-1788 [3H-Flumazenil] displacement in rat cortical tissue; details: 0.5 nM 3H-RO15-1788, 30 min at 4° C., pH 7.4

Row | Molecule | Ki [nM]
2 | O=c1[nH]c2ccccc2c2nn(-c3ccccc3)c(=O)n12 [Compound 1, 2-phenyl-5,6-dihydro-5-oxo-[6H]-1,2,4-triazolo[4,3-c]quinazolin-3-one] | 5.9
3 | O=c1n(-c2ccccc2)nc2n1CNc1ccccc1-2 [Compound 2, 2-phenyl-5,6-dihydro-1,2,4-triazolo[4,3-c]quinazolin-3-one] | 12
4 | O=c1[nH]c2ccccc2c2nn(-c3ccccn3)c(=O)n12 [Compound 5, 2-(2-Pyridyl)-5,6-dihydro-5-oxo-[6H]-1,2,4-triazolo[4,3-c]quinazolin-3-one] | 7.6
5 | O=c1n(-c2ccccn2)nc2n1CNc1ccccc1-2 [Compound 13, 2-(2-Pyridyl)-5,6-dihydro-1,2,4-triazolo[4,3-c]quinazolin-3-one] | 63
6 | CN(C)Cc1ccc(-n2nc3n(c2=O)CNc2ccccc2-3)cc1 [Compound 21, 2-[4-(N,N-dimethylaminomethyl)phenyl]-5,6-dihydro-1,2,4-triazolo-[4,3-c]quinazolin-3-one hydrochloride] | 53
7 | O=c1[nH]c2ccccc2c2nn(-c3ccccc3)c(=S)n12 [Compound 28, 2-phenyl-5,6-dihydro-5-oxo-6[H]-1,2,4-triazolo[4,3-c]quinazolin-3-thione] | 4.5
8 | S=c1n(-c2ccccc2)nc2n1CNc1ccccc1-2 [Compound 29, 2-phenyl-5,6-dihydro-1,2,4-triazolo[4,3-c]quinazolin-3-thione] | 636
9 | O=c1[nH]c2c(c3nn(-c4ccccc4)c(=O)n13)CCCC2 [Compound 30, 2-phenyl-5,6-dihydro-5-oxo-[6H]-7,8,9,10-tetrahydro-1,2,4-triazolo[4,3-c]-quinazolin-3-one] | 4.5
10 | O=c1n(-c2ccccc2)nc2n1CNC1=C2CCCC1 [Compound 31, 2-phenyl-5,6,7,8,9,10-hexahydro-1,2,4-triazolo[4,3-c]-quinazolin-3-one] | 8

test system: benzodiazepine receptor; experiment: not given; details: in animals and humans; by itself; cited from earlier work

Row | Molecule | intrinsic pharmacological activity
11 | imidazo[1,5-a][1,4]benzodiazepine | little intrinsic pharmacological activity
